# Results from US20230233569A1 (Revolution Medicines, Inc., priority 2020, published 2023).
# Assays:
# NCI-H358 (K-Ras G12C) = assay: CellTiter-Glo cell viability assay, 5-day treatment; type: cell-based; conditions: Homo sapiens, NCI-H358, 120 h, 5-day treatment; read-out: H358 Cell Viability assay data (K-Ras G12C, IC50)
# Procedure, shortened: (§1)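 Five-day compound treatment of plated cells; luminescent read after ~30 min at RT. Percent-of-DMSO data fit to a four-parameter logistic model.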
# Capan-1 (K-Ras G12V) = assay: as above; type: cell-based; conditions: Homo sapiens, CAPAN-1, 120 h, 5-day treatment; read-out: Capan-1 Cell Viability assay data (K-Ras G12V, IC50)
# Procedure, shortened: as §1
# NRAS WT = NRAS WT (Homo sapiens, UniProt P01111+P62937); assay: Disruption of BRAF RBD interaction with Ras (FRET / MOA assay, with Cyclophilin A); type: biochemical; conditions: NRAS WT; read-out: NRAS WT FRET data IC50
# Procedure, shortened: (§2)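 TR-FRET in 25 mM HEPES pH 7.3, 100 mM NaCl, 5 mM MgCl2, 0.1% BSA: 25 μM Cyclophilin A, 12.5 nM His6-Ras-GMPPNP, 50 nM GST-BRAF RBD with compound (10-point 3-fold series from 30 μM), 3 h at 25° C. Anti-His Eu/anti-GST APC added, 1.5 h more; IC50 from decreased FRET ratio versus DMSO.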
# KRAS Q61H = KRAS Q61H (Homo sapiens, UniProt P01116+P62937, Q61H); assay: as above; type: biochemical; conditions: KRAS Q61H; read-out: KRAS Q61H FRET data IC50
# Procedure, shortened: as §2
# NRAS Q61K = NRAS Q61K (Homo sapiens, UniProt P01111+P62937, Q61K); assay: as above; type: biochemical; conditions: NRAS Q61K; read-out: NRAS Q61K FRET data IC50
# Procedure, shortened: as §2
# NRAS Q61R = NRAS Q61R (Homo sapiens, UniProt P01111+P62937, Q61R); assay: as above; type: biochemical; conditions: NRAS Q61R; read-out: NRAS Q61R FRET data IC50
# Procedure, shortened: as §2
# KRAS G13D = KRAS G13D (Homo sapiens, UniProt P01116+P62937, G13D); assay: as above; type: biochemical; conditions: KRAS G13D; read-out: KRAS G13D FRET data IC50
# Procedure, shortened: (§3)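 TR-FRET: nucleotide-loaded K-Ras mutant or WT with Cyclophilin A and BRAF RBD, compound 10-point 3-fold from 30 μM final, 3 h at 25° C, then anti-His Eu (10 nM) and anti-GST APC (50 nM) for 1.5 h. Decreased FRET ratio versus DMSO gives IC50.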
# KRAS G12S = KRAS G12S (Homo sapiens, UniProt P01116+P62937, G12S); assay: as above; type: biochemical; conditions: read-out: KRAS G12S FRET data, IC50
# Procedure, shortened: as §3
# NRAS G12C = NRAS G12C (Homo sapiens, UniProt P01111+P62937, G12C); assay: as above; type: biochemical; conditions: NRAS G12C; read-out: NRAS G12C FRET data IC50
# KRAS G12V = KRAS G12V (Homo sapiens, UniProt P01116+P62937, G12V); assay: as above; type: biochemical; conditions: KRAS G12V; read-out: KRAS G12V FRET data IC50
# Procedure, shortened: as §3
# KRAS G12D = KRAS G12D (Homo sapiens, UniProt P01116+P62937, G12D); assay: as above; type: biochemical; conditions: read-out: KRAS G12D FRET data, IC50
# Procedure, shortened: as §3
# KRAS G12C = KRAS G12C (Homo sapiens, UniProt P01116+P62937, G12C); assay: as above; type: biochemical; conditions: read-out: KRAS G12C FRET data, IC50
# Procedure, shortened: as §3
# KRAS G13C = KRAS G13C (Homo sapiens, UniProt P01116+P62937, G13C); assay: as above; type: biochemical; conditions: read-out: KRAS G13C FRET data, IC50
# Procedure, shortened: as §3
# KRAS WT = KRAS WT (Homo sapiens, UniProt P01116+P62937); assay: as above; type: biochemical; conditions: KRAS WT; read-out: KRAS WT FRET data IC50
# Procedure, shortened: as §3
# KRAS G13D, sequence (P01116 1-169 isoform P01116-2 G13D limits assumed): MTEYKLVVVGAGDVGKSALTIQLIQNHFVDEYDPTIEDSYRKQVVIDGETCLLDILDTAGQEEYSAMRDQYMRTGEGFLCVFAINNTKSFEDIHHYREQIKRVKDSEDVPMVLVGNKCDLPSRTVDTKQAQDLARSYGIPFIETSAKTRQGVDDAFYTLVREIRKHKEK
# KRAS G13D, sequence (P62937 whole entry): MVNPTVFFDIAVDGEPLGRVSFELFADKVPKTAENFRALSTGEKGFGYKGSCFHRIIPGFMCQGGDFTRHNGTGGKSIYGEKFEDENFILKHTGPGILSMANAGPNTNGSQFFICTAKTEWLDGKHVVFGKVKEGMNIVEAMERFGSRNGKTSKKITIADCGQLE
# NRAS G12C, sequence (P01111 whole entry G12C): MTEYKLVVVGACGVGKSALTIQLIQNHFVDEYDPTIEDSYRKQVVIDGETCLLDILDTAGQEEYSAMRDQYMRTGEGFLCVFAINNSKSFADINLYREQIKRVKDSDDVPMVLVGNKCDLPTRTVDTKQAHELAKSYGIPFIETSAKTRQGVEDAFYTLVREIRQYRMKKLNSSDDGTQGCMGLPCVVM
# NRAS G12C, sequence (P62937 whole entry): as the sequence (P62937 whole entry) above
# KRAS G12V, sequence (P01116 1-169 isoform P01116-2 G12V limits assumed): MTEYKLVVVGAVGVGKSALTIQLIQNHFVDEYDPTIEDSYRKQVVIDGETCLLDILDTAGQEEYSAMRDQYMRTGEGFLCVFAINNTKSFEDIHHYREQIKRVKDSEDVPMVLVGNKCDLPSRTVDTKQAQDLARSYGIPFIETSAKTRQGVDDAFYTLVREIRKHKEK
# KRAS G12V, sequence (P62937 whole entry): as the sequence (P62937 whole entry) above
# KRAS WT, sequence (P01116 1-169 isoform P01116-2 limits assumed): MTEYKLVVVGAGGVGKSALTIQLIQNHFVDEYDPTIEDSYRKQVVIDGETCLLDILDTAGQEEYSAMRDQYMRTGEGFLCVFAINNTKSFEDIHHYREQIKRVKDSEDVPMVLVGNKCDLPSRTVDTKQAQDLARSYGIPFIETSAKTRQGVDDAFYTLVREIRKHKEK
# KRAS WT, sequence (P62937 whole entry): as the sequence (P62937 whole entry) above
# KRAS G13C, sequence (P01116 1-169 isoform P01116-2 G13C): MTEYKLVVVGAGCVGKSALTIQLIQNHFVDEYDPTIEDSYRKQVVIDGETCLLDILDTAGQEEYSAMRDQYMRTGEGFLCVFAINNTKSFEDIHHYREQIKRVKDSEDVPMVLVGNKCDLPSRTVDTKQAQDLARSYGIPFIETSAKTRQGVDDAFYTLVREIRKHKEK
# KRAS G13C, sequence (P62937 whole entry): as the sequence (P62937 whole entry) above
# KRAS G12C, sequence (P01116 1-169 isoform P01116-2 G12C): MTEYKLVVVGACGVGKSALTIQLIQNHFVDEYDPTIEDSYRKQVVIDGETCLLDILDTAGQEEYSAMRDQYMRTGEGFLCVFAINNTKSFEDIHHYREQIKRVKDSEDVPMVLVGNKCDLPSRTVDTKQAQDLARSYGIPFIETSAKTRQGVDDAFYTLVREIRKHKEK
# KRAS G12C, sequence (P62937 whole entry): as the sequence (P62937 whole entry) above
# NRAS WT, sequence (P01111 whole entry): as the sequence (P01111 whole entry G12C) above, with C12G counted along it
# NRAS WT, sequence (P62937 whole entry): as the sequence (P62937 whole entry) above
# KRAS G12S, sequence (P01116 1-169 isoform P01116-2 G12S limits assumed): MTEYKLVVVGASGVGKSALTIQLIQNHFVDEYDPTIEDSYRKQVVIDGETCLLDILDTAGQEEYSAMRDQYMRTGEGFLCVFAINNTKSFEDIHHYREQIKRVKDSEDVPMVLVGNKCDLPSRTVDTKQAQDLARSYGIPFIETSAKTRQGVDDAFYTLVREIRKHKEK
# KRAS G12S, sequence (P62937 whole entry): as the sequence (P62937 whole entry) above
# NRAS Q61R, sequence (P01111 whole entry Q61R): as the sequence (P01111 whole entry G12C) above, with C12G, Q61R counted along it
# NRAS Q61R, sequence (P62937 whole entry): as the sequence (P62937 whole entry) above
# NRAS Q61K, sequence (P01111 whole entry Q61K): as the sequence (P01111 whole entry G12C) above, with C12G, Q61K counted along it
# NRAS Q61K, sequence (P62937 whole entry): as the sequence (P62937 whole entry) above
# KRAS G12D, sequence (P01116 1-169 isoform P01116-2 G12D limits assumed): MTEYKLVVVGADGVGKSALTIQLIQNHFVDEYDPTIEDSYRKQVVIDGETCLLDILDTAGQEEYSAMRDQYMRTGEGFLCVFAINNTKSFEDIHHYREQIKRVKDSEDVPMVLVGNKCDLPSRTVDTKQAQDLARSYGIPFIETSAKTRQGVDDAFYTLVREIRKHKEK
# KRAS G12D, sequence (P62937 whole entry): as the sequence (P62937 whole entry) above
# KRAS Q61H, sequence (P01116 1-169 isoform P01116-2 Q61H limits assumed): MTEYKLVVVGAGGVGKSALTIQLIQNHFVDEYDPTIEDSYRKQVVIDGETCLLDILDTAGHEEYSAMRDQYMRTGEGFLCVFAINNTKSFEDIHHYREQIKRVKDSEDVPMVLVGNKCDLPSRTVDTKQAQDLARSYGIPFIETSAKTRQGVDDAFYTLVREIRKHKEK
# KRAS Q61H, sequence (P62937 whole entry): as the sequence (P62937 whole entry) above
SMILES,IC50 (NCI-H358 (K-Ras G12C)),IC50 (Capan-1 (K-Ras G12V)),IC50 (NRAS WT),IC50 (KRAS Q61H),IC50 (NRAS Q61K),IC50 (NRAS Q61R),IC50 (KRAS G13D),IC50 (KRAS G12S),IC50 (NRAS G12C),IC50 (KRAS G12V),IC50 (KRAS G12D),IC50 (KRAS G12C),IC50 (KRAS G13C),IC50 (KRAS WT)
"CCn1c(-c2cccnc2[C@H](C)OC)c2c3cc(ccc31)-c1csc(n1)C[C@H](NC(=O)[C@H](C(C)C)N(C)C(=O)N1CC3(CC(N(C)CCO)C3)C1)C(=O)N1CCC[C@H](N1)C(=O)OCC(C)(C)C2 (atropisomer, axis not shown) [Example A467]",10 to 100 nM,10 to 100 nM,100 to 1000 nM,10 to 100 nM,10 to 100 nM,100 to 1000 nM,100 to 1000 nM,100 to 1000 nM,10 to 100 nM,100 to 1000 nM,100 to 1000 nM,10 to 100 nM,100 to 1000 nM,100 to 1000 nM
"CCn1c(-c2cccnc2[C@H](C)OC)c2c3cc(ccc31)-c1csc(n1)C[C@H](NC(=O)[C@H](C(C)C)N(C)C(=O)N1CC[C@H]3CN(C)C[C@H]31)C(=O)N1CCC[C@H](N1)C(=O)OCC(C)(C)C2 (atropisomer, axis not shown) [Example A471]",100 to 1000 nM,100 to 1000 nM,10 to 100 nM,10 to 100 nM,10 to 100 nM,100 to 1000 nM,100 to 1000 nM,100 to 1000 nM,10 to 100 nM,100 to 1000 nM,100 to 1000 nM,10 to 100 nM,100 to 1000 nM,100 to 1000 nM
"CCn1c(-c2cc(N3CCN(C)CC3)cnc2[C@H](C)OC)c2c3cc(ccc31)-c1csc(n1)C[C@H](NC(=O)[C@H](C(C)C)N(C)C(=O)N1C[C@@H](C)N(C)C[C@H]1C)C(=O)N1CCC[C@H](N1)C(=O)OCC(C)(C)C2 (atropisomer, axis not shown) [Example A476]",< 10 nM,< 10 nM,100 to 1000 nM,100 to 1000 nM,100 to 1000 nM,100 to 1000 nM,100 to 1000 nM,100 to 1000 nM,10 to 100 nM,100 to 1000 nM,100 to 1000 nM,100 to 1000 nM,100 to 1000 nM,100 to 1000 nM
"CCn1c(-c2cc(N3CCN(C)CC3)cnc2[C@H](C)OC)c2c3cc(ccc31)-c1csc(n1)C[C@H](NC(=O)[C@H](C(C)C)N(C)C(=O)N1CC(N(C)C)C1)C(=O)N1CCC[C@H](N1)C(=O)OCC(C)(C)C2 (atropisomer, axis not shown) [Example A477]",< 10 nM,< 10 nM,10 to 100 nM,10 to 100 nM,10 to 100 nM,10 to 100 nM,100 to 1000 nM,100 to 1000 nM,10 to 100 nM,10 to 100 nM,100 to 1000 nM,10 to 100 nM,100 to 1000 nM,100 to 1000 nM
"CCn1c(-c2cccnc2[C@H](C)OC)c2c3cc(ccc31)-c1csc(n1)C[C@H](NC(=O)[C@H](C(C)C)N(C)C(=O)N1CC([C@H](C)CO)C1)C(=O)N1CCC[C@H](N1)C(=O)OCC(C)(C)C2 (atropisomer, axis not shown) [Example A478]",< 10 nM,10 to 100 nM,10 to 100 nM,10 to 100 nM,10 to 100 nM,100 to 1000 nM,100 to 1000 nM,100 to 1000 nM,10 to 100 nM,100 to 1000 nM,100 to 1000 nM,10 to 100 nM,100 to 1000 nM,100 to 1000 nM
"CCn1c(-c2cc(N3CCN(C)CC3)cnc2[C@H](C)OC)c2c3cc(ccc31)-c1csc(n1)C[C@H](NC(=O)[C@H](C(C)C)N(C)C(=O)N1CCC13CCN(C)CC3)C(=O)N1CCC[C@H](N1)C(=O)OCC(C)(C)C2 (atropisomer, axis not shown) [Example A483]",< 10 nM,10 to 100 nM,10 to 100 nM,10 to 100 nM,10 to 100 nM,10 to 100 nM,100 to 1000 nM,10 to 100 nM,10 to 100 nM,100 to 1000 nM,10 to 100 nM,10 to 100 nM,100 to 1000 nM,10 to 100 nM
